Experimental data published in patent publication US20250368633A1, “AZEPINE FUSED RING COMPOUND AS RIPK1 INHIBITOR AND USE THEREOF” (ARTIVILA BIOPHARMA, priority 2022, published 2025).

Legend:
RIPK1 kinase = molecular target: T1, RIPK1 kinase (Homo sapiens, UniProt Q13546); test: In vitro RIPK1 kinase activity assay (ADP-Glo), inhibition by compounds at 1 μM; format: biochemical; conditions: compound 1 μM; ATP 10 μM; MBP substrate 100 μg/mL; read-out: RIPK1 kinase activity inhibition rate range
T1 construct: purchased Promega VA7593
T1 sequence (Q13546 1-671): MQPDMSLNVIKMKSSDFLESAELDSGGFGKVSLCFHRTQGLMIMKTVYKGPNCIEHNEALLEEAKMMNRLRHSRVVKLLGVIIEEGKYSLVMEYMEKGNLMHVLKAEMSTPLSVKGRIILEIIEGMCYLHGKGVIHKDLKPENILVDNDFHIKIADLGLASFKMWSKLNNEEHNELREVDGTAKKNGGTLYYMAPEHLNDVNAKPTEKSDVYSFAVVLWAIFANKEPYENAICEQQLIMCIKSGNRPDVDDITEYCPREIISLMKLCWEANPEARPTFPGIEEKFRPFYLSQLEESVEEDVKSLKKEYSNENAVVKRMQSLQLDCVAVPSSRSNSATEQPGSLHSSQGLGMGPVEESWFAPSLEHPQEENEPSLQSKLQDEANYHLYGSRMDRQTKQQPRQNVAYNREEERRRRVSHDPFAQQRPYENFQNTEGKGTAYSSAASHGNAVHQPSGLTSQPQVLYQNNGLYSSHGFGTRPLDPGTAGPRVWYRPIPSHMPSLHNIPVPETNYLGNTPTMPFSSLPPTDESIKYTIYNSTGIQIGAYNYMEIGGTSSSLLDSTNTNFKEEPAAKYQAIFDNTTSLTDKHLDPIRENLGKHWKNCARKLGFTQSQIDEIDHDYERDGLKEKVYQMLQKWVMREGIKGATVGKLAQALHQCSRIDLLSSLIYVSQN
How it was run: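 Compound and RIPK1 were preincubated 15 min at room temperature, then reacted 1 h with 10 μM ATP and 100 μg/mL MBP substrate in kinase buffer D. ADP formed was measured by ADP-Glo luminescence and converted to percent inhibition of kinase activity.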

U937 cells = test: Inhibition rate of compound (1 μM) on necroptosis of U937 cells (TSZ-induced, CellTiter-Glo); format: cell-based; conditions: TSZ (hTNF-α, SM-164, Z-VAD-FMK) 20 hours
How it was run: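 U937 cells were pretreated 15 min with compound, then necroptosis was triggered with TSZ (Z-VAD-FMK, hTNF-α, SM-164) for 20 h at 37° C. Viability was read as ATP by CellTiter-Glo luminescence, and inhibition (%) was taken relative to no-TSZ and TSZ-only wells.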

| Compound | inhibition at 1 µM (RIPK1 kinase) | Inhibition rate range of compounds (1 μM) on U937 cell necroptosis (U937 cells) |
| --- | --- | --- |
| CN1C(=O)[C@@H](NC(=O)C(=O)NCCc2ccccc2)COc2ccc(C#Cc3cccnc3)cc21 [Example 13, (S)—N^1-(5-methyl-4-oxo-7-(pyridin-3-ylethynyl)-2,3,4,5-tetrahydrobenzo[b][1,4]oxazepin-3-yl)-N^2-phenethyloxalamide] | ≥ 75% | A (A: ≥90%) |
| CN1C(=O)[C@@H](NC(=O)C(=O)NCCc2ccccc2)COc2ccc(C#Cc3ccsc3)cc21 [Example 17, (S)—N^1-(5-methyl-4-oxo-7-(thiophen-3-ylethynyl)-2,3,4,5-tetrahydrobenzo[b][1,4]oxazepin-3-yl)-N^2-phenethyloxalamide] | ≥ 75% | A (A: ≥90%) |
| CN1C(=O)[C@@H](NC(=O)C(=O)NCCc2ccccc2)COc2ccc(C#C[Si](C)(C)C)cc21 [Example 18, (S)—N^1-(5-methyl-4-oxo-7-((trimethylsilyl)ethynyl)-2,3,4,5-tetrahydrobenzo[b][1,4]oxazepin-3-yl)-N^2-phenethyloxalamide] | ≥ 75% | A (A: ≥90%) |
| CC#Cc1ccc2c(c1)N(C)C(=O)[C@@H](NC(=O)C(=O)NCCc1ccccc1)CO2 [Example 19, (S)—N^1-(5-methyl-4-oxo-7-(prop-1-yn-1-yl)-2,3,4,5-tetrahydrobenzo[b][1,4]oxazepin-3-yl)-N^2-phenethyloxalamide] | ≥ 75% | A (A: ≥90%) |
| CN1C(=O)[C@@H](NC(=O)C(=O)NCCc2ccccc2)COc2ccc(C#CC3CCOCC3)cc21 [Example 21, (S)—N^1-(5-methyl-4-oxo-7-((tetrahydro-2H-pyran-4-yl)ethynyl)-2,3,4,5-tetrahydrobenzo[b][1,4]oxazepin-3-yl)-N^2-phenethyloxalamide] | ≥ 75% | A (A: ≥90%) |
| CN1C(=O)[C@@H](NC(=O)C(=O)NCCc2ccccc2)COc2ccc(C#Cc3cnn(C)c3)cc21 [Example 22, (S)—N^1-(5-methyl-7-((1-methyl-1H-pyrazol-4-yl)ethynyl)-4-oxo-2,3,4,5-tetrahydrobenzo[b][1,4]oxazepin-3-yl)-N^2-phenethyloxalamide] | ≥ 75% | B (B: 50-89%) |
| CN1C(=O)[C@@H](NC(=O)C(=O)NCCc2ccccc2)COc2ccc(C#CC3CCCNC3)cc21 (stereo partly drawn) [Example 24, N^1-((3S)-5-methyl-4-oxo-7-(piperidin-3-ylethynyl)-2,3,4,5-tetrahydrobenzo[b][1,4]oxazepin-3-yl)-N^2-phenethyloxalamide] | 50 to 74% | A (A: ≥90%) |
| CN1C(=O)[C@@H](NC(=O)C(=O)NCCc2ccccc2)COc2ccc(C#Cc3cnc4cccnn34)cc21 [Example 25, (S)—N^1-(7-(imidazo[1,2-b]pyridazin-3-ylethynyl)-5-methyl-4-oxo-2,3,4,5-tetrahydrobenzo[b][1,4]oxazepin-3-yl)-N^2-phenethyloxalamide] | ≥ 75% | A (A: ≥90%) |
| CN1C(=O)[C@@H](NC(=O)C(=O)NCCc2ccccc2)COc2ccc(C#CC(C)(C)O)cc21 [Example 29, (S)—N^1-(7-(3-hydroxy-3-methylbut-1-yn-1-yl)-5-methyl-4-oxo-2,3,4,5-tetrahydrobenzo[b][1,4]oxazepin-3-yl)-N^2-phenethyloxalamide] | ≥ 75% | A (A: ≥90%) |
| CN1C(=O)[C@@H](NC(=O)C(=O)NCCc2ccccc2)COc2ccc(C#CCCO)cc21 [Example 31, (S)—N^1-(7-(4-hydroxybut-1-yn-1-yl)-5-methyl-4-oxo-2,3,4,5-tetrahydrobenzo[b][1,4]oxazepin-3-yl)-N^2-phenethyloxalamide] | ≥ 75% | A (A: ≥90%) |
| CN1C(=O)[C@@H](NC(=O)C(=O)NCc2ccccc2)COc2ccc(C#CCCO)cc21 [Example 32, (S)—N^1-benzyl-N^2-(7-(4-hydroxybut-1-yn-1-yl)-5-methyl-4-oxo-2,3,4,5-tetrahydrobenzo[b][1,4]oxazepin-3-yl)oxalamide] | ≥ 75% | A (A: ≥90%) |

Continued, in another order:

| inhibition at 1 µM (RIPK1 kinase) | Compound | Inhibition rate range of compounds (1 μM) on U937 cell necroptosis (U937 cells) |
| --- | --- | --- |
| 50 to 74% | CC(Cc1ccccc1)NC(=O)C(=O)N[C@H]1COc2ccc(C#CCCO)cc2N(C)C1=O (mixture of isomers) [Example 37, N^1-((S)-7-(4-hydroxybut-1-yn-1-yl)-5-methyl-4-oxo-2,3,4,5-tetrahydrobenzo[b][1,4]oxazepin-3-yl)-N^2-(1-phenylpropan-2-yl)oxalamide] | A (A: ≥90%) |
| ≥ 75% | CC(NC(=O)C(=O)N[C@H]1COc2ccc(C#CCCO)cc2N(C)C1=O)c1ccccc1 (mixture of isomers) [Example 41, N^1-((S)-7-(4-hydroxybut-1-yn-1-yl)-5-methyl-4-oxo-2,3,4,5-tetrahydrobenzo[b][1,4]oxazepin-3-yl)-N^2-(1-phenylethyl)oxalamide] | A (A: ≥90%) |
| ≥ 75% | CN1CCC(CC#Cc2ccc3c(c2)N(C)C(=O)[C@@H](NC(=O)C(=O)NCCc2ccccc2)CO3)C1=O (mixture of isomers) [Example 82, N^1-((3S)-5-methyl-7-(3-(1-methyl-2-oxopyrrolidin-3-yl)prop-1-yn-1-yl)-4-oxo-2,3,4,5-tetrahydrobenzo[b][1,4]oxazepin-3-yl)-N^2-phenethyloxalamide] | A (A: ≥90%) |
| ≥ 75% | CN1C(=O)[C@@H](NC(=O)C(=O)NCCc2cccc(F)c2)COc2ccc(C#CCN3CCC(O)C3)cc21 (mixture of isomers) [Example 113, N^1-(3-fluorophenethyl)-N^2-((3S)-7-(3-(3-hydroxypyrrolidin-1-yl)prop-1-yn-1-yl)-5-methyl-4-oxo-2,3,4,5-tetrahydrobenzo[b][1,4]oxazepin-3-yl)oxalamide] | A (A: ≥90%) |
| ≥ 75% | C[C@@H](NC(=O)C(=O)N[C@H]1COc2ccc(C#CCN3CCC(O)C3)cc2N(C)C1=O)c1ccccc1 (mixture of isomers) [Example 126, N^1-((3S)-7-(3-(3-hydroxypyrrolidin-1-yl)prop-1-yn-1-yl)-5-methyl-4-oxo-2,3,4,5-tetrahydrobenzo[b][1,4]oxazepin-3-yl)-N^2-((R)-1-phenylethyl)oxalamide] | A (A: ≥90%) |
| ≥ 75% | CC(CNC(=O)C(=O)N[C@H]1COc2ccc(C#CCCO)cc2N(C)C1=O)c1ccccc1 (mixture of isomers) [Example 154, N^1-((S)-7-(4-hydroxybut-1-yn-1-yl)-5-methyl-4-oxo-2,3,4,5-tetrahydrobenzo[b][1,4]oxazepin-3-yl)-N^2-(2-phenylpropyl)oxalamide] | A (A: ≥90%) |
| ≥ 75% | CN1C(=O)[C@@H](NC(=O)C(=O)NCCc2ccccc2F)COc2ccc(C#CCCO)cc21 [Example 33, (S)—N^1-(2-fluorophenethyl)-N^2-(7-(4-hydroxybut-1-yn-1-yl)-5-methyl-4-oxo-2,3,4,5-tetrahydrobenzo[b][1,4]oxazepin-3-yl)oxalamide] | A (A: ≥90%) |
| 50 to 74% | CN1C(=O)[C@@H](NC(=O)C(=O)NCCc2cccc(F)c2)COc2ccc(C#CCCO)cc21 [Example 34, (S)—N^1-(3-fluorophenethyl)-N^2-(7-(4-hydroxybut-1-yn-1-yl)-5-methyl-4-oxo-2,3,4,5-tetrahydrobenzo[b][1,4]oxazepin-3-yl)oxalamide] | A (A: ≥90%) |
| 50 to 74% | CN1C(=O)[C@@H](NC(=O)C(=O)NCCc2ccc(F)cc2)COc2ccc(C#CCCO)cc21 [Example 35, (S)—N^1-(4-fluorophenethyl)-N^2-(7-(4-hydroxybut-1-yn-1-yl)-5-methyl-4-oxo-2,3,4,5-tetrahydrobenzo[b][1,4]oxazepin-3-yl)oxalamide] | A (A: ≥90%) |
| ≥ 75% | CN1C(=O)[C@@H](NC(=O)C(=O)NCCc2cc(F)cc(F)c2)COc2ccc(C#CCCO)cc21 [Example 36, (S)—N^1-(3,5-difluorophenethyl)-N^2-(7-(4-hydroxybut-1-yn-1-yl)-5-methyl-4-oxo-2,3,4,5-tetrahydrobenzo[b][1,4]oxazepin-3-yl)oxalamide] | A (A: ≥90%) |
